Test results published in ChEMBL document CHEMBL1139678, “Design and synthesis of novel N-sulfonyl-2-indole carboxamides as potent PPAR-gamma binding agents with potential application to the treatment of osteoporosis” (Bioorg Med Chem Lett, 2006).
Converted amounts (≈) assume the structure as drawn. The source made the active and inactive calls. The calls are words filed in the database; no cut-off is given here.

How the values were obtained:
[1] = target: T1, Peroxisome proliferator-activated receptor gamma (Homo sapiens, UniProt P37231); experiment: Displacement of Fluormone from PPAR gamma
T1 sequence (P37231 whole entry): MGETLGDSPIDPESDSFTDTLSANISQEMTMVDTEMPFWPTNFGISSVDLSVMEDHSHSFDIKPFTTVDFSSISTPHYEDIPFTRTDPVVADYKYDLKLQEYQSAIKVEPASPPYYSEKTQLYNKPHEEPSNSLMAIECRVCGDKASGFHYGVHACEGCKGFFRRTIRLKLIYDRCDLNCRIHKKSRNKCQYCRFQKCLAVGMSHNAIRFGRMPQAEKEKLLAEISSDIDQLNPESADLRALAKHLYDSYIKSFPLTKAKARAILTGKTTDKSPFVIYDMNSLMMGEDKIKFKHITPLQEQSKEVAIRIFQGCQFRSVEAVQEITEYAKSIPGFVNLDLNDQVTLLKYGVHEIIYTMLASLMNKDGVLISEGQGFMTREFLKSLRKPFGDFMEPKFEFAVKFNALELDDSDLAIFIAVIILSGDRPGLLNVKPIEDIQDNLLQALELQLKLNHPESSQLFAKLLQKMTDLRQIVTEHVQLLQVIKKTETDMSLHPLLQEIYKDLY

Osteoblast = experiment: Induction of osteoblast differentiation assessed as stimulation of alkaline phosphatase in MC3T3-E1 cells; format: functional, cell-based; settings: Mus musculus
[2] = Solubility of the compound; format: physicochemical

| SMILES | IC50 [1] | other results |
| --- | --- | --- |
| CCn1c(C(=O)NS(=O)(=O)c2cccc(C(F)(F)F)c2)cc2ccccc21 | 2440 nM | – |
| COc1ccc(-c2c(C(=O)NS(=O)(=O)c3ccccc3C)n(Cc3cccc(C(F)(F)F)c3)c3ccccc23)cc1 | 7 nM | – |
| O=C(NS(=O)(=O)c1cccc(C(F)(F)F)c1)c1cc2ccccc2n1Cc1cccc(OC(F)(F)F)c1 | 90 nM | – |
| O=C(NS(=O)(=O)c1ccccc1)c1cc2ccccc2n1Cc1cccc(C(F)(F)F)c1 | 290 nM | – |
| O=C(NS(=O)(=O)c1cccc(C(F)(F)F)c1)c1cc2ccccc2n1C(=O)c1cccc(C(F)(F)F)c1 | 9400 nM | – |
| O=C(NS(=O)(=O)c1cccc(C(F)(F)F)c1)c1cc2ccccc2n1Cc1ccc(C(F)(F)F)cc1 | 400 nM | – |
| O=C(NS(=O)(=O)c1cccc(C(F)(F)F)c1)c1cc2ccccc2n1Cc1cccc(C(F)(F)F)c1 | 80 nM | – |
| CS(=O)(=O)NC(=O)c1cc2ccccc2n1Cc1cccc(C(F)(F)F)c1 | 680 nM | – |
| CC(C)(C)c1ccc(Cn2c(C(=O)NS(=O)(=O)c3cccc(C(F)(F)F)c3)cc3ccccc32)cc1 | 330 nM | – |
| O=C(NS(=O)(=O)c1ccc(F)cc1)c1cc2ccccc2n1Cc1cccc(C(F)(F)F)c1 | 720 nM | – |
| COc1ccc(-c2c(C(=O)NS(=O)(=O)c3cccc(C(F)(F)F)c3)n(Cc3cccc(C(F)(F)F)c3)c3ccccc23)cc1 | 60 nM | – |
| O=C(NS(=O)(=O)c1cccc(C(F)(F)F)c1)c1cc2cc(Cl)ccc2n1Cc1cccc(C(F)(F)F)c1 | 330 nM | – |
| Cc1ccccc1S(=O)(=O)NC(=O)c1cc2ccccc2n1Cc1cccc(C(F)(F)F)c1 | 180 nM | – |
| CN(CCOc1ccc(CC2SC(=O)NC2=O)cc1)c1ccccn1 (configuration not stated) | – | Activity (Osteoblast): inactive |
| O=C(NS(=O)(=O)c1ccccc1C(F)(F)F)c1cc2ccccc2n1Cc1cccc(C(F)(F)F)c1 | 80 nM | – |
| O=C(NS(=O)(=O)c1cccc(C(F)(F)F)c1)c1cc2ccccc2n1Cc1cccc(OCc2ccccc2)c1 | 50 nM | – |
| COc1ccc(-c2c(C(=O)NS(=O)(=O)c3ccccc3)n(Cc3cccc(C(F)(F)F)c3)c3ccccc23)cc1 | – | EC50 (Osteoblast): 100 nM; solubility [2]: 5 µg/mL (≈ 8.86 µM) |
| O=C(NS(=O)(=O)c1cccc(C(F)(F)F)c1)c1cc2ccccc2n1Cc1cc(Cl)ccc1Cl | 380 nM | – |
| O=C(NS(=O)(=O)c1cccc(C(F)(F)F)c1)c1cc2cc(O)ccc2n1Cc1cccc(C(F)(F)F)c1 | 540 nM | – |
| O=C(NS(=O)(=O)c1cccc(C(F)(F)F)c1)c1cc2ccccc2n1Cc1ccccc1 | 280 nM | – |
| COc1cccc(Cn2c(C(=O)NS(=O)(=O)c3cccc(C(F)(F)F)c3)cc3ccccc32)c1 | 140 nM | – |
| Cc1ccc(S(=O)(=O)NC(=O)c2cc3ccccc3n2Cc2cccc(C(F)(F)F)c2)cc1 | 290 nM | – |
| O=C(NS(=O)(=O)c1cccc(C(F)(F)F)c1)c1cc2cc(OCc3ccccc3)ccc2n1Cc1cccc(C(F)(F)F)c1 | 770 nM | – |
| O=C(NS(=O)(=O)c1ccc(Cl)cc1)c1cc2ccccc2n1Cc1cccc(C(F)(F)F)c1 | 280 nM | EC50 (Osteoblast): 1000 nM |
| O=C(NS(=O)(=O)c1ccc2ccccc2c1)c1cc2ccccc2n1Cc1cccc(C(F)(F)F)c1 | 90 nM | – |
| COc1ccc(-c2c(C(=O)NS(C)(=O)=O)n(Cc3cccc(C(F)(F)F)c3)c3ccccc23)cc1 | 2 nM | – |
| O=C(NS(=O)(=O)c1ccc(Cl)s1)c1cc2ccccc2n1Cc1cccc(C(F)(F)F)c1 | 80 nM | – |
| COc1ccc(-c2c(C(=O)NS(=O)(=O)c3ccc(F)cc3)n(Cc3cccc(C(F)(F)F)c3)c3ccccc23)cc1 | 7 nM | – |
| COC(=O)c1ccccc1S(=O)(=O)NC(=O)c1c(-c2ccc(OC)cc2)c2ccccc2n1Cc1cccc(C(F)(F)F)c1 | 1 nM | EC50 (Osteoblast): 1000 nM |
